The target in assay [1] is T1, mouse FAP (Mus musculus, UniProt P97321).
T1 construct: biotinylated His, Avi tag, mouse FAP (26-761, FAP-M82Q5); His; Avi tag (biotinylated); purchased AcroBiosystems FAP-M82Q5
T1 sequence (P97321 26-761): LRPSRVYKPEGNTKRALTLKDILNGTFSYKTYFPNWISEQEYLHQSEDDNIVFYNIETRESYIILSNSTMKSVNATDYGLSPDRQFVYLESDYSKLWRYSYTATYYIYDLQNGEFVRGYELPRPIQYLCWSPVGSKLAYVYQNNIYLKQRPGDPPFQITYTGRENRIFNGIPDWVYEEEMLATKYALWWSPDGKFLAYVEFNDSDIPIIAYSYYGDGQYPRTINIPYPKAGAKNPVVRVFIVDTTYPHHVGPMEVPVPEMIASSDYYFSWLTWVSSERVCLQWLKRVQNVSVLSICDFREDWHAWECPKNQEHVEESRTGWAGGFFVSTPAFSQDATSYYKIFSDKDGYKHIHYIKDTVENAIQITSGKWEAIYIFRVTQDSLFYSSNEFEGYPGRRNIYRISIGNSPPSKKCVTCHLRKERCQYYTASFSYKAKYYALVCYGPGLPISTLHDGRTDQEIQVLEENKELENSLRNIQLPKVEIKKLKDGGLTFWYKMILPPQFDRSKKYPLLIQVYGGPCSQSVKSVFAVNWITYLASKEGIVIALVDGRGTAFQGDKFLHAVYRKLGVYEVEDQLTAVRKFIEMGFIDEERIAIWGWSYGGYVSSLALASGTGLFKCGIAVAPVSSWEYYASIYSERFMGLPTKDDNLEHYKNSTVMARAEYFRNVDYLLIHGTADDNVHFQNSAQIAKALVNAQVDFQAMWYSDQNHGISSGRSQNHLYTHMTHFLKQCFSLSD
Put plainly: Surface plasmon resonance (SPR) for peptide affinity, mouse FAP. In kind it is binding. Put shortly: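 KD values come from a 1:1 kinetic fit of single-cycle SPR data: 8 peptide concentrations, 25 °C, 30 μL/min, HEPES-buffered saline pH 7.6 with 2% DMSO. Targets were His/Avi-tagged human (26-760) or mouse (26-761) FAP, amine-coupled to CM5 or held on a CAPture chip.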

In a further assay the target is T2, human FAP (Homo sapiens, UniProt Q12884).
T2 construct: the biotinylated His, Avi tag, human FAP (26-760, FAP-H82Q6); His; Avi tag (biotinylated); purchased AcroBiosystems FAP-H82Q6
T2 sequence (Q12884 26-760): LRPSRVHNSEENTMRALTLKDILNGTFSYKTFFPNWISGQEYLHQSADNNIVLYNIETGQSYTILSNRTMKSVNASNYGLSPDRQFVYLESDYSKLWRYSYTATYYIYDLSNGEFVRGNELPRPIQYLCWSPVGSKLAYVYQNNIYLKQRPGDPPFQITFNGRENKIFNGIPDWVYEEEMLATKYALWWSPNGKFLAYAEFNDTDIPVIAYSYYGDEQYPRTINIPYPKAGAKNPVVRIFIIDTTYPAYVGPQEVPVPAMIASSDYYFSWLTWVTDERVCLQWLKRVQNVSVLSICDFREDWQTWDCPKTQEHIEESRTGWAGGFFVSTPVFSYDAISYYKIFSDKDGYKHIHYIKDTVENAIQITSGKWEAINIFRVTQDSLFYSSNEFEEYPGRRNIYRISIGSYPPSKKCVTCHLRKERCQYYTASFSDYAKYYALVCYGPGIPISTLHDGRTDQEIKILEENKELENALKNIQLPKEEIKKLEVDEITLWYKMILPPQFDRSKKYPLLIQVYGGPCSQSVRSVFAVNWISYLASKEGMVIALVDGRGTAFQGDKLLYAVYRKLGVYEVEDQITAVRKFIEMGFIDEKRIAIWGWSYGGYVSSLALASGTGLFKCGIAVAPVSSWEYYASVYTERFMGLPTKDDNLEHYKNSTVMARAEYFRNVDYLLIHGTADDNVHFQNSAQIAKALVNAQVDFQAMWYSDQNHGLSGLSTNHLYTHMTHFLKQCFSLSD
Nature of the assay: Enzymatic FAP competition assay (Z-Gly-Pro-AMC fluorescence), human FAP. The class given is biochemical. Particulars: read-out: h. FAP, Enz., IC50. Put shortly: (§1)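 IC50 values come from curve fitting of duplicate % inhibition data on AMC fluorescence (ex 380, em 460 nm) after 4 h at 22-24° C with 50 μM Z-Gly-Pro-AMC. Beforehand, peptides up to 1 μM (14 levels) sat 24 h with 0.01 nM human (26-760) or mouse (26-761) tagged FAP in phosphate buffer pH 7.5, NaCl, Tween20, 1% DMSO.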

In assay [2] the target is T1, mouse FAP. Nature of the assay: Enzymatic FAP competition assay (Z-Gly-Pro-AMC fluorescence), mouse FAP. Particulars: read-out: m. FAP, Enz., IC50. The class given is biochemical. Put shortly:
as §1

Counter-ions that a name gives are not always drawn. Non-standard residues stand in square brackets, D forms with d. Residues, ends and D or L forms follow the SMILES beside them. *: point of attachment. DOTA = O=C(O)CN1CCN(CC(=O)O)CCN(CC(=O)*)CCN(CC(=O)O)CC1; NMeAla(cPent) = CN[C@@H](CC1CCCC1)C(=O)O; AEF = NCCOc1ccc(C[C@H](N)C(=O)O)cc1; NMeF = CN[C@@H](Cc1ccccc1)C(=O)O; Ahp(2) = CCCCC[C@H](N)C(=O)O; hSer = N[C@@H](CCO)C(=O)O; Nphe = O=C(O)CNCc1ccccc1; Sar = CNCC(=O)O

The compound `CCCCC[C@@H]1NC(=O)[C@H](Cc2ccc(O)cc2)NC(=O)[C@H](CC2CCCC2)N(C)C(=O)CNC(=O)[C@H](CCCCN)NC(=O)[C@H]2CCCN2C(=O)[C@H](CC(=O)O)NC(=O)[C@H](Cc2ccc(O)cc2)NC(=O)CNC(=O)[C@H](Cc2c[nH]c3ccccc23)NC1=O` [Example A44, Lys-Gly-NMecPenA-Tyr-Ahp-Trp-Gly-Tyr-Asp-D-Pro, TFA salt] (cyclo([Ahp(2)]WGYD[dP]KG[NMeAla(cPent)]Y)) displayed a Kd at mouse FAP [1] of 2.7 nM. Moreover, the results for the IC50 at human FAP and on mouse FAP [2] were 0.54 nM and 2.5 nM, respectively.
On mouse FAP [1], `CCCCC[C@@H]1NC(=O)[C@H](Cc2ccc(O)cc2)NC(=O)[C@H](Cc2ccccc2)N(C)C(=O)CNC(=O)[C@H](CC(=O)O)NC(=O)[C@H]2CCCN2C(=O)[C@H](CC(=O)O)NC(=O)[C@H](Cc2ccc(O)cc2)NC(=O)CNC(=O)[C@H](Cc2c[nH]c3ccccc23)NC1=O` [Example A18, Asp-Gly-NMePhe-Tyr-Ahp-Trp-Gly-Tyr-Asp-D-Pro] (cyclo([Ahp(2)]WGYD[dP]DG[NMeF]Y)) had a Kd of 0.222 nM. In addition, the IC50 at human FAP was 0.27 nM; at mouse FAP [2], 0.71 nM.
In turn, `CCCCCC[C@@H]1NC(=O)[C@H](Cc2ccc(CNC(=O)COCCOCCNC(=O)CCC(C(=O)O)N3CCN(CC(=O)O)CCN(CC(=O)O)CC3)cc2)NC(=O)[C@H](Cc2ccccc2)N(C)C(=O)CNC(=O)CNC(=O)[C@H]2CCCN2C(=O)[C@H](CC(=O)O)NC(=O)[C@H](CCCCNC(=O)N2CCN(CC(=O)O)CC2)NC(=O)CNC(=O)[C@H](Cc2c[nH]c3ccccc23)NC1=O` (stereo partly drawn) [Example B38, Gly-Gly-NMePhe-F(4amPEG2NHNODAGA)-Aoc-Trp-Gly-K(COpipzaa)-Asp-D-Pro] displayed an equilibrium dissociation constant (Kd) at mouse FAP [1] of less than 0.076 nM. The IC50 came out at 0.031 nM at human FAP and 0.073 nM on mouse FAP [2].
On the same counts, the results for `CCCCC[C@@H]1NC(=O)[C@H](Cc2ccc(O)cc2)NC(=O)[C@H](Cc2ccccc2)N(C)C(=O)CNC(=O)CNC(=O)CN(C)C(=O)[C@H](CC(=O)O)NC(=O)[C@H](Cc2ccc(O)cc2)NC(=O)CNC(=O)[C@H](Cc2c[nH]c3ccccc23)NC1=O` [Example A68, Gly-Gly-NMePhe-Tyr-Ahp-Trp-Gly-Tyr-Asp-NMeGly] (cyclo([Ahp(2)]WGYD[Sar]GG[NMeF]Y)) are 35 nM, 12 nM and 80 nM.
With `CCCCC[C@@H]1NC(=O)[C@H](Cc2ccc(O)cc2)NC(=O)[C@H](Cc2ccccc2)N(C)C(=O)CNC(=O)CNC(=O)[C@H]2CCCN2C(=O)[C@H](CC(=O)O)NC(=O)CN(Cc2ccccc2)C(=O)CNC(=O)[C@H](Cc2c[nH]c3ccccc23)NC1=O` [Example A74, Gly-Gly-NMePhe-Tyr-Ahp-Trp-Gly-NBnG-Asp-D-Pro] (cyclo(GG[NMeF]Y[Ahp(2)]WG[Nphe]D[dP])), binding at mouse FAP [1] was characterised by a dissociation constant (Kd) of 4.6 nM. The IC50 at human FAP is 1.4 nM; at mouse FAP [2] it was 3.3 nM.
The like results for `CCCCC[C@@H]1NC(=O)[C@H](Cc2ccc(OCCNC(=O)CN3CCN(CC(=O)O)CCN(CC(=O)O)CCN(CC(=O)O)CC3)cc2)NC(=O)[C@H](Cc2ccccc2)N(C)C(=O)CNC(=O)[C@H](CCO)NC(=O)[C@H]2CCCN2C(=O)[C@H](CC(=O)O)NC(=O)[C@H](Cc2ccc(O)cc2)NC(=O)CNC(=O)[C@H](Cc2c[nH]c3ccccc23)NC1=O` [Example B26, hSer-Gly-NMePhe-F(4OEtNHDOTA)-Ahp-Trp-Gly-Tyr-Asp-D-Pro, TFA salt] (cyclo([hSer]G[NMeF][AEF](DOTA)[Ahp(2)]WGYD[dP])) were, in that order, 0.105 nM, 0.027 nM and 0.117 nM.
On the same counts, the results for `CCCCC[C@@H]1NC(=O)[C@H](Cc2ccc(O)cc2)NC(=O)[C@H](Cc2ccccc2)N(C)C(=O)CNC(=O)CNC(=O)[C@H]2CCCN2C(=O)[C@H](CC(N)=O)NC(=O)[C@H](Cc2ccc(O)cc2)NC(=O)CNC(=O)[C@H](Cc2c[nH]c3ccccc23)NC1=O` [Example A58, Gly-Gly-NMePhe-Tyr-Ahp-Trp-Gly-Tyr-Asn-D-Pro] (cyclo([Ahp(2)]WGYN[dP]GG[NMeF]Y)) are 75 nM, 19 nM and 46 nM.
